Laboratory results: ChEMBL document CHEMBL1143063, “Discovery of 3-piperidinyl-1-cyclopentanecarboxamide as a novel scaffold for highly potent CC chemokine receptor 2 antagonists” (J Med Chem, 2007)
Active and inactive are the calls of the source. The rule behind the calls is not given here.

How the values were obtained:
[1] = biological target: T1, C-C chemokine receptor type 2 (Homo sapiens, UniProt P41597); assay: Displacement of [125]hMCP1 from human CCR2 receptor expressed in human monocytes at 1 uM; type: cell-based
Target sequence in this assay (P41597 whole entry, looked up): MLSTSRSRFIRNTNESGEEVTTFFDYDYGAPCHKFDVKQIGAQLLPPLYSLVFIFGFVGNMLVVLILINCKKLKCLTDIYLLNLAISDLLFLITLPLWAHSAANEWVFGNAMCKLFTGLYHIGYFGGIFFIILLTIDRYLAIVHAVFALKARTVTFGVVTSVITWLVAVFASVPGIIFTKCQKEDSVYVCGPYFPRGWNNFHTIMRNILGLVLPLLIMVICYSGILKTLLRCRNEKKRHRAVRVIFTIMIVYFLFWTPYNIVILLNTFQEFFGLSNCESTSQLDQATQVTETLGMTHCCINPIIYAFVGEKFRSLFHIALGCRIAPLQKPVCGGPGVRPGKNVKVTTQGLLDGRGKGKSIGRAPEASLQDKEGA

[2] = biological target: T1, C-C chemokine receptor type 2; assay: Displacement of [125]hMCP1 from human CCR2 receptor expressed in human monocytes; type: cell-based
[3] = biological target: C-C chemokine receptor type 2 (Mus musculus) (UniProt P51683); assay: Displacement of [125]hMCP1 from mouse CCR2 receptor expressed in CHO cells at 1 uM; type: cell-based
[4] = biological target: C-C chemokine receptor type 2 (Mus musculus) (UniProt P51683); assay: (§1) Displacement of [125]hMCP1 from mouse CCR2 receptor expressed in CHO cells; type: cell-based
[5] = Plasma clearance in rat; type: ADME, organism-based
[6] = Volume of distribution in rat; type: ADME, organism-based; settings: in vivo, read-out: Vss
[7] = biological target: C-C chemokine receptor type 5 (Homo sapiens, UniProt P51681); assay: Displacement of MIP1alpha from CCR5 receptor
[8] = biological target: C-C chemokine receptor type 2 (Mus musculus, UniProt P51683); assay: as §1; type: cell-based
[9] = Half life in rat; type: ADME, organism-based; settings: in vivo
[10] = Oral bioavailability in rat; type: ADME, organism-based; settings: in vivo
[11] = biological target: T1, C-C chemokine receptor type 2; assay: Antagonist activity against human CCR2 receptor assessed as inhibition of MCP1-induced calcium flux in human monocytes; type: functional, cell-based
Target sequence in this assay (P41597 whole entry): as the sequence (P41597 whole entry, looked up) above

Chain of C-C chemokine receptor type 2 (Mus musculus) (P51683 whole entry, looked up): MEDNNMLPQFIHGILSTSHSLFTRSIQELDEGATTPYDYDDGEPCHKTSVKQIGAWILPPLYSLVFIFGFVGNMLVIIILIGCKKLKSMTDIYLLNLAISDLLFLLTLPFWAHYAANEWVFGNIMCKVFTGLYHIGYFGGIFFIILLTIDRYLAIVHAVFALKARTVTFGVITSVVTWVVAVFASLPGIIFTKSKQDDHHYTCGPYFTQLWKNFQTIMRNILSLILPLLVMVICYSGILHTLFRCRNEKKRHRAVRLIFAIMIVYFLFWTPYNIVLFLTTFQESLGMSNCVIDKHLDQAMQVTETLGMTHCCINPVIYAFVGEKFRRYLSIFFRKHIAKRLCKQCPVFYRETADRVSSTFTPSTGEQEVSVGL
Chain of C-C chemokine receptor type 2 (Mus musculus, UniProt P51683) (P51683 whole entry): as the sequence (P51683 whole entry, looked up) above
Chain of C-C chemokine receptor type 5 (P51681 whole entry): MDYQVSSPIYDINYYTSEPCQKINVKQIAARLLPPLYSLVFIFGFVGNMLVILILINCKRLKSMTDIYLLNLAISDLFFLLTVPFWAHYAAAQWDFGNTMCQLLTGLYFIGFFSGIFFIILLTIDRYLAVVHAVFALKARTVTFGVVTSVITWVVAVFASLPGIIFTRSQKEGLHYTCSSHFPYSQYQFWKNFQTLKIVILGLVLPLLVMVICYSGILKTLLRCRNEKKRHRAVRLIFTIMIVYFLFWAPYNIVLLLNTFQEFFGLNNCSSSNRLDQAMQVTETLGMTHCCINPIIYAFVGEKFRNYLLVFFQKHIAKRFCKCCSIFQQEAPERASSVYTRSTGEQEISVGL

Which Activity [1] does the source give for `O=C(NCc1cc(C(F)(F)F)cc(C(F)(F)F)c1)[C@H]1CC[C@H](N2CCC(c3ccccc3)CC2)C1` here?
Its Activity is 44%.

With `C[C@]1(C(=O)NCc2cc(C(F)(F)F)cc(C(F)(F)F)c2)CC[C@@H](N2CCC3(C=Cc4ccccc43)CC2)C1` as the molecule, how does the IC50 [2] read?
The IC50 was 47 nM.

And the Activity [3]?
Its Activity is 27%.

For `O=C(NCc1cc(C(F)(F)F)cc(C(F)(F)F)c1)[C@H]1CC[C@@H](N2CCC3(C=Cc4ccccc43)CC2)C1`, which IC50 [2] is on record?
The IC50 was 7.5 nM.

What about the Activity [4] of the same molecule?
The Activity was “inactive”.

With `CC1C[C@@H](N2CC[C@@]3(C=Cc4ccccc43)[C@@H](C)C2)C[C@H]1C(=O)NCc1cc(C(F)(F)F)cc(C(F)(F)F)c1` (some centres undefined) as the molecule, how does the IC50 [2] read?
The IC50 was greater than 1000 nM.

And the Activity [4]?
Its Activity is “inactive”.

For `O=C(NCc1cc(C(F)(F)F)cc(C(F)(F)F)c1)[C@H]1CC[C@@H](N2CCC(c3ccccc3)CC2)C1`, which IC50 [2] is on record?
The IC50 was 36 nM.

For `C[C@H]1CN([C@@H]2CC[C@](C)(C(=O)NCc3cc(C(F)(F)F)cc(C(F)(F)F)c3)C2)CC[C@@]12C=Cc1ccccc12`, which clearance [5] is on record?
Its clearance is 50 mL/min/kg.

And the IC50 [2]?
The IC50 was 1.3 nM.

What about the Vd [6] of the same molecule?
Its Vd is 6 L/kg.

What about the IC50 [7] of the same molecule?
Its IC50 is 630 nM.

And the IC50 [8]?
The IC50 was 130 nM.

What about the half-life [9] of the same molecule?
The half-life was 8.1 h.

And the bioavailability [10]?
Its bioavailability is 15%.

Which IC50 [2] does the source give for `C[C@H]1CN([C@@H]2CC[C@H](C(=O)NCc3cc(C(F)(F)F)cc(C(F)(F)F)c3)C2)CC[C@@]12C=Cc1ccccc12` here?
Its IC50 is 1.4 nM.

And the Activity [3]?
Its Activity is 27%.

And the IC50 [11]?
Its IC50 is 2.3 nM.

With `O=C1C(CCN2CCC(c3ccccc3)CC2)CCN1Cc1cc(C(F)(F)F)cc(C(F)(F)F)c1` (centres undefined) as the molecule, how does the Activity [2] read?
The Activity was “inactive”.

For `O=C(NCc1cc(C(F)(F)F)cc(C(F)(F)F)c1)C1CCCC(N2CCC(c3ccccc3)CC2)C1` (centres undefined), which Activity [1] is on record?
Its Activity is 23%.

With `O=C1C(CCN2CCC(c3ccccc3)CC2)CCCN1Cc1cc(C(F)(F)F)cc(C(F)(F)F)c1` (centres undefined) as the molecule, how does the Activity [2] read?
Its Activity is “inactive”.

For `O=C(NCc1cc(C(F)(F)F)cc(C(F)(F)F)c1)[C@@H]1CC[C@H](N2CCC(c3ccccc3)CC2)C1`, which Activity [1] is on record?
Its Activity is 30%.

With `O=C(NCc1cc(C(F)(F)F)cc(C(F)(F)F)c1)C1CCC(N2CCC(c3ccccc3)CC2)C1` (centres undefined) as the molecule, how does the IC50 [2] read?
Its IC50 is 65 nM.

Which Activity [1] does the source give for `O=C(NCc1cc(C(F)(F)F)cc(C(F)(F)F)c1)[C@@H]1CC[C@@H](N2CCC(c3ccccc3)CC2)C1` here?
Its Activity is 25%.
